Results taken from paper PMC7473772 (eLife, 2020).
Values joined by “and” are separate entries in the source; they are usually repeats but may differ in a detail not shown here. Equal values may be shown once. Read-outs that look alike come from different tables or passages of the source.

Assays:
[1] = system: TbAQP2 expressed in tbaqp2 null; experiment: Drug sensitivity assay (resazurin); format: cell-based; details: Trypanosoma brucei
TbAQP2/HAPT1 = TbAQP2/HAPT1 (Trypanosoma brucei brucei, UniProt Q6ZXT3); experiment: cell-based; format: cell-based
tbaqp2/tbaqp3 null cells = experiment: microbe, parasite or virus in culture; format: cell-based, Trypanosoma brucei brucei; details: for EC50: Trypanosoma brucei
tbaqp2 null (AQP2-KO) = experiment: Drug sensitivity assay (resazurin); format: cell-based; details: Trypanosoma brucei
T. b. brucei 2T1 = experiment: Drug sensitivity assay (resazurin); format: cell-based; details: Trypanosoma brucei
Experimental: The tbaqp2/tbaqp3 null cells ([Baker et al., 2012]) and tbaqp1-2-3 null cells ([Jeacock et al., 2017]) (both obtained from David Horn, University of Dundee, UK) are derived from the 2T1 strain of T. b. brucei ([Alsford and Horn, 2008]). The CRK12 RNAi cell line^28 was obtained from Dr Tansy Hammarton (University of Glasgow, UK) and is also based on the 2T1 cell line; RNAi expression was induced with 1 µg/ml tetracycline in the medium. All experiments were performed with bloodstream form trypanosomes grown in vitro in HMI-11 medium as described ([Wallace et al., 2002]) at 37°C in a 5% CO2 atmosphere. Cultures were routinely maintained in 10 ml of this medium, being seeded at 5 × 10^4 cells/ml and passed to fresh medium at reaching approximately 3 × 10^6 cells/ml after 48 hr. For transport experiments 150 or 200 ml of culture was seeded at the same density in large flasks and incubated until the culture reached late-log phase.
Drug sensitivity assays for T. b. brucei bloodstream forms used the cell viability dye resazurin (Sigma) and were performed exactly as described ([Wallace et al., 2002]; [Bridges et al., 2007]) in 96-well plates with doubling dilutions of test compound, starting at 100 µM, over 2 rows of the plate (23 dilutions plus no-drug control). Incubation time with test compound was 48 hr (37°C/5% CO2), followed by an additional 24 hr in the presence of the dye.

[2] = system: tbaqp2/tbaqp3 null cells expressing TbAQP2 L118W; experiment: microbe, parasite or virus in culture; format: cell-based, Trypanosoma brucei brucei
[3] = system: tbaqp2/tbaqp3 null cells expressing TbAQP2^I110W/L264R; format: cell-based, Trypanosoma brucei brucei
[4] = system: tbaqp2/tbaqp3 null cells expressing TbAQP2 L218W; experiment: microbe, parasite or virus in culture; format: cell-based, Trypanosoma brucei brucei
[5] = system: tbaqp2/tbaqp3 null cells expressing TbAQP2 L118M; experiment: microbe, parasite or virus in culture; format: cell-based, Trypanosoma brucei brucei
[6] = system: tbaqp2/tbaqp3 null cells expressing TbAQP2^L258Y; format: cell-based, Trypanosoma brucei brucei
[7] = system: tbaqp2/tbaqp3 null cells expressing TbAQP2^L264R; format: cell-based, Trypanosoma brucei brucei
[8] = system: tbaqp2/tbaqp3 null cells expressing TbAQP2WT; experiment: microbe, parasite or virus in culture; format: cell-based, Trypanosoma brucei brucei; details: for EC50: Trypanosoma brucei
[9] = system: tbaqp2/tbaqp3 null cells expressing TbAQP2 L84M; experiment: microbe, parasite or virus in culture; format: cell-based, Trypanosoma brucei brucei
[10] = system: tbaqp2/tbaqp3 null cells expressing TbAQP2 L84W; experiment: microbe, parasite or virus in culture; format: cell-based, Trypanosoma brucei brucei
[11] = system: tbaqp2/tbaqp3 null cells expressing TbAQP2^I110W; format: cell-based, Trypanosoma brucei brucei
[12] = system: tbaqp2/tbaqp3 null cells expressing TbAQP2 L218M; experiment: microbe, parasite or virus in culture; format: cell-based, Trypanosoma brucei brucei
[13] = system: tbaqp2/tbaqp3 null cells expressing TbAQP2^S131P/S263A; format: cell-based, Trypanosoma brucei brucei
[14] = system: tbaqp1-2-3 null cells expressing TbAQP2WT; experiment: Drug sensitivity assay (resazurin), pentamidine and SHAM; format: cell-based, Trypanosoma brucei brucei; details: +AQP2 W.T in KO AQP1-3
tbaqp1-2-3 null cells = experiment: as above; format: cell-based, Trypanosoma brucei brucei; details: KO AQP1-3
[15] = system: tbaqp1-2-3 null cells expressing TbAQP2 position 84, 118 and 218 Trp and Met mutants; experiment: as above; format: cell-based, Trypanosoma brucei brucei
[16] = read-out: EC50 AQP2-KO AVG, AQP2-KO / tbaqp2 null, 48 h drug + 24 h resazurin
[17] = 48 h drug + 24 h resazurin, read-out: EC50 control 2T1 AVG
[18] = Trypanosoma brucei, read-out: EC50, MEAN
[19] = Trypanosoma brucei, read-out: EC50, single repeats
[20] = Trypanosoma brucei, read-out: EC50, MEAN (nM)
[21] = 3 repeats, read-out: EC50, MEAN

Sequence of TbAQP2/HAPT1 (Q6ZXT3 whole entry): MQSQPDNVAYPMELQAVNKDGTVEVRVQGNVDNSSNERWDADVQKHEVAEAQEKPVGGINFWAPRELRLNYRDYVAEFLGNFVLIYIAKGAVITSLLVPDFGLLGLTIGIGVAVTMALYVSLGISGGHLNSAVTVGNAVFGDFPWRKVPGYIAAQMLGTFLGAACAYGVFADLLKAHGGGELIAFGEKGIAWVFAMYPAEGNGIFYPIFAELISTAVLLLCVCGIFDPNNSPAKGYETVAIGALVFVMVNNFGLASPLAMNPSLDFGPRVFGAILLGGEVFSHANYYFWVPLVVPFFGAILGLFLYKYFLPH

CC[n+]1c(-c2ccccc2)c2cc(N)ccc2c2ccc(N)cc21 [Ethidium]
EC50 [1]: 1.35 ± 0.11 µM
ΔG0 (TbAQP2/HAPT1): -22.9 kJ/mol
δ(ΔG0) (TbAQP2/HAPT1): 19.7 kJ/mol
Ki (TbAQP2/HAPT1; Ki): 97 µM
EC50 (tbaqp2/tbaqp3 null cells): 1380 ± 140 nM
EC50 (tbaqp2 null (AQP2-KO); [16]): 1.39 µM
EC50 (T. b. brucei 2T1; [17]): 1.32 µM

N=C(N)c1ccc(/N=N/Nc2ccc(C(=N)N)cc2)cc1 [Diminazene]
EC50 (% of aqp2/aqp3 null), MEAN [2]: 95.82 % of aqp2/aqp3 null
EC50 (% of aqp2/aqp3 null), single repeats [2]: 118.42 % of aqp2/aqp3 null and 101.85 % of aqp2/aqp3 null and 67.18 % of aqp2/aqp3 null
EC50 [2, 18]: 0.0728 µM
EC50 [2, 19]: 0.09 µM
EC50 ([2]; read-out: EC50, single repeats): 0.0774 µM and 0.0511 µM
EC50 as percent of AQP2/3 null EC50, MEAN [3]: 108.15%
EC50 (% of aqp2/aqp3 null), MEAN [4]: 38.99 % of aqp2/aqp3 null
Sensitisation relative to tbaqp2/tbaqp3 null [4]: ~ 2 fold
EC50 [4, 18]: 0.0296 µM
ΔG0 (TbAQP2/HAPT1): -24.0 kJ/mol
δ(ΔG0) (TbAQP2/HAPT1): 18.6 kJ/mol
Ki (TbAQP2/HAPT1; HAPT Ki, AVG): 62.5 µM
Ki (TbAQP2/HAPT1; Ki): 63 µM
EC50 (% of aqp2/aqp3 null), MEAN (tbaqp2/tbaqp3 null cells): 100.00 % of aqp2/aqp3 null
EC50, MEAN (% KO) (tbaqp2/tbaqp3 null cells): 100.00 % KO
EC50, percent of AQP2/3 null EC50 (tbaqp2/tbaqp3 null cells): 100.00%
EC50 as percent of AQP2/3 null EC50, MEAN (tbaqp2/tbaqp3 null cells): 100.00%
EC50 as percent of AQP2/3 null EC50, single repeats (tbaqp2/tbaqp3 null cells): 100%
EC50 (tbaqp2/tbaqp3 null cells; read-out: EC50, MEAN): 76 nM
EC50 (tbaqp2/tbaqp3 null cells; read-out: EC50, MEAN (nM)): 175 nM
EC50, MEAN (% KO) [5]: 93.77 % KO
EC50 [5, 20]: 177 nM
EC50, percent of AQP2/3 null EC50 [6]: 105.69%
EC50 (tbaqp2 null (AQP2-KO); [16]): 0.108 µM
EC50, percent of AQP2/3 null EC50 [7]: 99.35%
EC50 (T. b. brucei 2T1; [17]): 0.122 µM
EC50 (% of aqp2/aqp3 null), MEAN [8]: 97.55 % of aqp2/aqp3 null
EC50, MEAN (% KO) [8]: 98.90 % KO
EC50, percent of AQP2/3 null EC50 [8]: 96.75% and 102.22% and 102.99% and 78.60%
EC50 as percent of AQP2/3 null EC50, MEAN [8]: 102.99%
EC50 ([8]; read-out: EC50, MEAN): 74.2 nM
EC50 ([8]; read-out: EC50, MEAN (nM)): 149 nM
EC50, MEAN (% KO) [9]: 99.61 % KO
EC50 [9, 20]: 145 nM
EC50 (% of aqp2/aqp3 null), MEAN [10]: 113.28 % of aqp2/aqp3 null
EC50 (% of aqp2/aqp3 null), single repeats [10]: 126.86 % of aqp2/aqp3 null and 125.65 % of aqp2/aqp3 null and 87.33 % of aqp2/aqp3 null
EC50 [10, 18]: 0.0861 µM
EC50 [10, 19]: 0.0964 µM
EC50 ([10]; read-out: EC50, single repeats): 0.0955 µM and 0.0664 µM
EC50, percent of AQP2/3 null EC50 [11]: 114.65%
EC50, MEAN (% KO) [12]: 48.28 % KO
Sensitisation relative to tbaqp2/tbaqp3 null [12]: ~ 2 fold
EC50 [12, 20]: 54 nM
EC50 [12, 19]: 38.7 nM
EC50 ([12]; read-out: EC50, single repeats): 61.5 nM and 61.9 nM and 39.1 nM and 34.8 nM and 41.6 nM
EC50, percent of AQP2/3 null EC50 [13]: 93.48%

CC[n+]1c(-c2ccccc2)c2cc(N/N=N/c3cccc(C(=N)N)c3)ccc2c2ccc(N)cc21 [Isometamidium]
EC50 [1]: 0.098 ± 0.024 µM
ΔG0 (TbAQP2/HAPT1): -31.1 kJ/mol
δ(ΔG0) (TbAQP2/HAPT1): 11.4 kJ/mol
Ki (TbAQP2/HAPT1; HAPT Ki, AVG): 3.54 µM
Ki (TbAQP2/HAPT1; Ki): 3.5 µM
EC50 (tbaqp2/tbaqp3 null cells): 95 ± 12 nM
EC50 (tbaqp2 null (AQP2-KO); [16]): 0.103 µM
EC50 (tbaqp2 null (AQP2-KO); tbaqp2 null, read-out: EC50): 0.103 ± 0.014 µM
EC50 (T. b. brucei 2T1; [17]): 0.112 µM
EC50 (T. b. brucei 2T1; read-out: EC50): 0.112 ± 0.012 µM

O=C(NO)c1ccccc1O [SHAM]
EC50 [14, 21]: 18.6 µM
EC50 ([14]; read-out: EC50, single repeats): 18.5 µM and 18.1 µM and 19.2 µM
EC50 (tbaqp1-2-3 null cells; [21]): 7.9 µM
EC50 (tbaqp1-2-3 null cells; read-out: EC50, single repeats): 7.38 µM and 7.93 µM and 8.39 µM
EC50 ([15]; +L84M in KO AQP1-3, 3 repeats, read-out: EC50, MEAN): 18.1 µM
EC50 ([15]; +L84M in KO AQP1-3, read-out: EC50, single repeats): 17.6 µM and 17.7 µM and 19.1 µM
EC50 ([15]; +L84W in KO AQP1-3, 3 repeats, read-out: EC50, MEAN): 13.2 µM
EC50 ([15]; +L84W in KO AQP1-3, read-out: EC50, single repeats): 11.3 µM and 13.7 µM and 14.6 µM
EC50 ([15]; +L84W/L118W in KO AQP1-3, 3 repeats, read-out: EC50, MEAN): 12.2 µM
EC50 ([15]; +L84W/L118W in KO AQP1-3, read-out: EC50, single repeats): 11.7 µM and 12.3 µM and 12.6 µM
EC50 ([15]; +L118M in KO AQP1-3, 3 repeats, read-out: EC50, MEAN): 11.5 µM
EC50 ([15]; +L118M in KO AQP1-3, read-out: EC50, single repeats): 10.9 µM and 12.3 µM and 11.4 µM
EC50 ([15]; +L118W in KO AQP1-3, 3 repeats, read-out: EC50, MEAN): 10.8 µM
EC50 ([15]; +L118W in KO AQP1-3, read-out: EC50, single repeats): 10.4 µM and 11.1 µM and 10.9 µM
EC50 ([15]; +L218M in KO AQP1-3, 3 repeats, read-out: EC50, MEAN): 15.2 µM
EC50 ([15]; +L218M in KO AQP1-3, read-out: EC50, single repeats): 15.8 µM and 12.7 µM and 17.1 µM
EC50 ([15]; +L218W in KO AQP1-3, 3 repeats, read-out: EC50, MEAN): 15.9 µM
EC50 ([15]; +L218W in KO AQP1-3, read-out: EC50, single repeats): 14.7 µM and 16.3 µM and 16.9 µM
